Experimental data published in ChEMBL document CHEMBL1201862, “PubChem BioAssay data set” (2004).
Calls of active or inactive are those of the source.

Columns and labels:
[1] = target: T1, Dual specificity protein phosphatase 6 (Rattus norvegicus, UniProt Q64346); type: functional
T1 sequence (Q64346 whole entry): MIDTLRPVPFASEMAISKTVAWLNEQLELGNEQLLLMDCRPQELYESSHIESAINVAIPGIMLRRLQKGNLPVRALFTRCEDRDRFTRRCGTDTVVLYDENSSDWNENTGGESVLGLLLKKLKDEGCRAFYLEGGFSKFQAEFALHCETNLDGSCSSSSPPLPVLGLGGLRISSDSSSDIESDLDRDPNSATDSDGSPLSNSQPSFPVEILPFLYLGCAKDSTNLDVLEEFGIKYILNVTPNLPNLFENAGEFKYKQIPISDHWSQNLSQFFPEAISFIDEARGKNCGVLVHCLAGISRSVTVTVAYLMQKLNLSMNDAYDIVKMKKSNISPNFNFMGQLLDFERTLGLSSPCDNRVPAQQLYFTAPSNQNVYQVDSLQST

[2] = target: T1, Dual specificity protein phosphatase 6
[3] = target: Glyceraldehyde-3-phosphate dehydrogenase (Homo sapiens, UniProt P04406)
Glyceraldehyde-3-phosphate dehydrogenase, sequence (P04406 whole entry): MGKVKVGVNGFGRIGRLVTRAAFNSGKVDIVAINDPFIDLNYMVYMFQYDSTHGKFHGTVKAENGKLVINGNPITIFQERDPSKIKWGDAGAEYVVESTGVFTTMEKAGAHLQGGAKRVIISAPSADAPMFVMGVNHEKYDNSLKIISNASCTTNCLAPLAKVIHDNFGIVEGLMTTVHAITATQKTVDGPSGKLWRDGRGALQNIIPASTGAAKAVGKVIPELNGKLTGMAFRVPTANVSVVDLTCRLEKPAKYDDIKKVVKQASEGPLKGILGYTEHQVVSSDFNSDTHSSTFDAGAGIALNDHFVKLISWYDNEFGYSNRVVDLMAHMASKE

Protein skinhead-1 = target: T2, Protein skinhead-1 (Caenorhabditis elegans, UniProt P34707); type: functional
T2 sequence (P34707 whole entry): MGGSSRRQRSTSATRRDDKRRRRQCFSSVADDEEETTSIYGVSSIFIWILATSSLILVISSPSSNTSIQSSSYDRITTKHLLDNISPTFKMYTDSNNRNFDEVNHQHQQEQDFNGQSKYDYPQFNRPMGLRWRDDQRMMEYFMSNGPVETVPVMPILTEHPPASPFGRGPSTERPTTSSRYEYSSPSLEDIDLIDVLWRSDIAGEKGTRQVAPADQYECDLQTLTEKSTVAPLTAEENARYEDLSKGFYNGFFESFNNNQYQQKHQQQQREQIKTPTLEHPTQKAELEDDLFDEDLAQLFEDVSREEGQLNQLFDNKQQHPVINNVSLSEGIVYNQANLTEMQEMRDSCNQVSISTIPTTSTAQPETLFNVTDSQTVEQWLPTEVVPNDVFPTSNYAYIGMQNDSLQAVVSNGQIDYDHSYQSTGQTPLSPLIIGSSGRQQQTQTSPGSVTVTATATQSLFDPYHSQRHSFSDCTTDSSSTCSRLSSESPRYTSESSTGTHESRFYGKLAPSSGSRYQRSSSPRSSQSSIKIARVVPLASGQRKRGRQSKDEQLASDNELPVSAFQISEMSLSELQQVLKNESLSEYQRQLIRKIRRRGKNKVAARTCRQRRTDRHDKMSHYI

[4] = target: Tyrosine-protein phosphatase non-receptor type 7 (Homo sapiens, UniProt P35236); type: functional
Tyrosine-protein phosphatase non-receptor type 7, sequence (P35236 whole entry): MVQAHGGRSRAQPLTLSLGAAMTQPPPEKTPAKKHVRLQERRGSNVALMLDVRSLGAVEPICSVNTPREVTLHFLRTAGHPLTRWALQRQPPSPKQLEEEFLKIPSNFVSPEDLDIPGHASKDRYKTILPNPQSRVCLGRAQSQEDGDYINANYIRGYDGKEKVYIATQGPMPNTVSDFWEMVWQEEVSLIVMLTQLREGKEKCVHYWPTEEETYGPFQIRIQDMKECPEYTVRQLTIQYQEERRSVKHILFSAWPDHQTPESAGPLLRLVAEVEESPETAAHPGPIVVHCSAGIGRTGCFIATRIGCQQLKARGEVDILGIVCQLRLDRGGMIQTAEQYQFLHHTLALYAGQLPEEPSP

[5] = target: Peroxisome proliferator-activated receptor gamma/Nuclear receptor coactivator 2 (Homo sapiens, UniProt P37231); type: functional;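 note: agonist potency for raising coactivator recruitment to the receptor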
Peroxisome proliferator-activated receptor gamma/Nuclear receptor coactivator 2, sequence (P37231 whole entry): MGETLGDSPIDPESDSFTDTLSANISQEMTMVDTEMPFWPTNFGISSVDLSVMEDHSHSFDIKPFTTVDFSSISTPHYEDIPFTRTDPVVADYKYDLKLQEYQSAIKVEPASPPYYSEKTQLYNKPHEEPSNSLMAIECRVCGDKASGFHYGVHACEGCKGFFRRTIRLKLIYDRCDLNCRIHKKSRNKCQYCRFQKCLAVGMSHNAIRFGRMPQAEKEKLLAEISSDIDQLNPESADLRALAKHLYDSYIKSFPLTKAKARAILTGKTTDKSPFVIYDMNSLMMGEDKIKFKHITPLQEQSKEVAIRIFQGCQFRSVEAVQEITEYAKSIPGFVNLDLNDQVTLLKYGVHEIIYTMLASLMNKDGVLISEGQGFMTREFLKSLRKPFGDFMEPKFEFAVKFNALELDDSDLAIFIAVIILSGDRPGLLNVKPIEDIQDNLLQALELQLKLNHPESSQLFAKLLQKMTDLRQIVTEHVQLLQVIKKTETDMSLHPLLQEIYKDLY
Peroxisome proliferator-activated receptor gamma/Nuclear receptor coactivator 2, sequence (Q15596 whole entry, further chain): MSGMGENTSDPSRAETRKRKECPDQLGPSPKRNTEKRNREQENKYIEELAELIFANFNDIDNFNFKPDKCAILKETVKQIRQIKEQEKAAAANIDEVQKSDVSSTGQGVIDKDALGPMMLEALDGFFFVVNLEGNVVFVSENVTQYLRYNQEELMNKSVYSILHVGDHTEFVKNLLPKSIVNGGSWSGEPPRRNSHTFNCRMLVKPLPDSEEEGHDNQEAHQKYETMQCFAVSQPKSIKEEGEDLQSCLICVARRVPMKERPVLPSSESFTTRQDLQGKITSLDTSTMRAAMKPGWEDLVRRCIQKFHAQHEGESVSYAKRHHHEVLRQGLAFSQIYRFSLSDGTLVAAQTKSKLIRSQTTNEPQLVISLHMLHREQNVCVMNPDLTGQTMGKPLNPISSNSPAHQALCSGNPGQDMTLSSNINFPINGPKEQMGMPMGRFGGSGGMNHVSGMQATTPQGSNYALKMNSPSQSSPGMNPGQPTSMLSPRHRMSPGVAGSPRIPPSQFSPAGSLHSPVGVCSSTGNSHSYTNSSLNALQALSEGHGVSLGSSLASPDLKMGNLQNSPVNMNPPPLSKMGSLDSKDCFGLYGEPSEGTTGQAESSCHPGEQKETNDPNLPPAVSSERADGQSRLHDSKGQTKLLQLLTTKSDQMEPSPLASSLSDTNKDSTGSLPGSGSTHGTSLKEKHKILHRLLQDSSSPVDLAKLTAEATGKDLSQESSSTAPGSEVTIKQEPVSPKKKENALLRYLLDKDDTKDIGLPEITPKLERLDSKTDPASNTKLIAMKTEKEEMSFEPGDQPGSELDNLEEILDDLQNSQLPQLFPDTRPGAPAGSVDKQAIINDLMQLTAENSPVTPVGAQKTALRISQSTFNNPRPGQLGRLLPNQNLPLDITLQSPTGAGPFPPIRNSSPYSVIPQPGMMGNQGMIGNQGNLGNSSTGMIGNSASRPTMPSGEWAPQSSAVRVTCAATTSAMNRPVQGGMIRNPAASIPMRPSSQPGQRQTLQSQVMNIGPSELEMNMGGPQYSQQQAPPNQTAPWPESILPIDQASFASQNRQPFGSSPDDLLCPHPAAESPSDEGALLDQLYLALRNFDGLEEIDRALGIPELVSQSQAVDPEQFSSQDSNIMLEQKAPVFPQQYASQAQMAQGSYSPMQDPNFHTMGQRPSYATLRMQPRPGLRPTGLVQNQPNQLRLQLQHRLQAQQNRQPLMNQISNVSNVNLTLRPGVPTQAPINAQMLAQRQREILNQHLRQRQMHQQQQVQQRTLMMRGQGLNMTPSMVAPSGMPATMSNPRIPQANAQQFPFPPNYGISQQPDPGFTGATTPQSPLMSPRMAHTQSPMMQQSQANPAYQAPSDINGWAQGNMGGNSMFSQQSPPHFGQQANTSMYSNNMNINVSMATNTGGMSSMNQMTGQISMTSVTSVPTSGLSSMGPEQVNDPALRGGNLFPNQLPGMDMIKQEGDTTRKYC

[6] = target: Peroxisome proliferator-activated receptor gamma/Nuclear receptor coactivator 1 (Homo sapiens, UniProt P37231); type: functional;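 note: agonist potency as compounds enhance coactivator SRC-1 recruitment to PPARgamma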
Peroxisome proliferator-activated receptor gamma/Nuclear receptor coactivator 1, sequence (P37231 whole entry): as the sequence (P37231 whole entry) above
Peroxisome proliferator-activated receptor gamma/Nuclear receptor coactivator 1, sequence (Q15788 whole entry, further chain): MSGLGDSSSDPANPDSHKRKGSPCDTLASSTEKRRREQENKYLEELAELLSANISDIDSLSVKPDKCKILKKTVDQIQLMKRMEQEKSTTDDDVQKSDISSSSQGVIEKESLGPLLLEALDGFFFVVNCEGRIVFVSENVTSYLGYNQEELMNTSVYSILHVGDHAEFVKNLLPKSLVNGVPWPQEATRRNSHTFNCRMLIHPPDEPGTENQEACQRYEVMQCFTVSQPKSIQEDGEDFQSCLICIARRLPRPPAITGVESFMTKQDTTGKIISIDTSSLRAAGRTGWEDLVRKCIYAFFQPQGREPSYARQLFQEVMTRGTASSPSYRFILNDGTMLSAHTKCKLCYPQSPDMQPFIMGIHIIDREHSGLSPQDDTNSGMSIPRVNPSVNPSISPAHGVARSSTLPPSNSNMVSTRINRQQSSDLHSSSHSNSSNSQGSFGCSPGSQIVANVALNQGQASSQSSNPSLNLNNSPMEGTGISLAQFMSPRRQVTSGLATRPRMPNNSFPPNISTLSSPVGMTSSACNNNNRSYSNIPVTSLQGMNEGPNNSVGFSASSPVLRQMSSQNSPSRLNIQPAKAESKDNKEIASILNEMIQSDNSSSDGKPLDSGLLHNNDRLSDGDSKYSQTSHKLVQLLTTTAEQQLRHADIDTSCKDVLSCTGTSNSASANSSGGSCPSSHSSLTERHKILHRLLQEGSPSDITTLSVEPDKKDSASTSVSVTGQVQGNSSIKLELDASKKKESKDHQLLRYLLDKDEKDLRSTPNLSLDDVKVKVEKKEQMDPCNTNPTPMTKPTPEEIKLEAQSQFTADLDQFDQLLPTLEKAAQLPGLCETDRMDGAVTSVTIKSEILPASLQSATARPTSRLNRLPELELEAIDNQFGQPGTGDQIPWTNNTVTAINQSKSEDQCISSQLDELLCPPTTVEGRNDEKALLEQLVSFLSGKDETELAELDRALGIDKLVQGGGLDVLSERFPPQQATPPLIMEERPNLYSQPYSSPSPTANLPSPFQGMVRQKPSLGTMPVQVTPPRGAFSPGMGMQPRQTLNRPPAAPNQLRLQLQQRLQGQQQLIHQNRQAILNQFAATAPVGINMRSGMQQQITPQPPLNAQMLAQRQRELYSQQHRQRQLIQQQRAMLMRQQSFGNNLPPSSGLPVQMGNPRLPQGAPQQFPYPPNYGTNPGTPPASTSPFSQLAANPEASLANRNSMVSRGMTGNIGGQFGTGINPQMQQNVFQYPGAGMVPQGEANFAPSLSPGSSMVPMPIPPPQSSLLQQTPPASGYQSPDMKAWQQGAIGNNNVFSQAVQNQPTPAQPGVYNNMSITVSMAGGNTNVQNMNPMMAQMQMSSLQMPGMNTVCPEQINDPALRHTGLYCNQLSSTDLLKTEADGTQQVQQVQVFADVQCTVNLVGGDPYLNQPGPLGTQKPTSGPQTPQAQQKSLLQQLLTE

[7] = target: Peroxisome proliferator-activated receptor gamma/Nuclear receptor coactivator 3 (Homo sapiens, UniProt P37231); type: functional;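 note: agonist potency for raising coactivator recruitment to the receptor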
Estrogen receptor = Estrogen receptor (Homo sapiens, UniProt P03372);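 note: potency for inhibiting coactivator peptide recruitment to the receptor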
Protein RecA = target: T3, Protein RecA (Mycobacterium tuberculosis, UniProt P9WHJ3); experiment: Fluorescence Cell-Free Homogeneous Dose Retest to Identify Inhibitors of RecA-Intein Splicing Activity. [Related pubchem assays (depositor defined):AID2097, AID2223, AID489010, AID492950]; type: functional
T3 sequence (P9WHJ3 whole entry): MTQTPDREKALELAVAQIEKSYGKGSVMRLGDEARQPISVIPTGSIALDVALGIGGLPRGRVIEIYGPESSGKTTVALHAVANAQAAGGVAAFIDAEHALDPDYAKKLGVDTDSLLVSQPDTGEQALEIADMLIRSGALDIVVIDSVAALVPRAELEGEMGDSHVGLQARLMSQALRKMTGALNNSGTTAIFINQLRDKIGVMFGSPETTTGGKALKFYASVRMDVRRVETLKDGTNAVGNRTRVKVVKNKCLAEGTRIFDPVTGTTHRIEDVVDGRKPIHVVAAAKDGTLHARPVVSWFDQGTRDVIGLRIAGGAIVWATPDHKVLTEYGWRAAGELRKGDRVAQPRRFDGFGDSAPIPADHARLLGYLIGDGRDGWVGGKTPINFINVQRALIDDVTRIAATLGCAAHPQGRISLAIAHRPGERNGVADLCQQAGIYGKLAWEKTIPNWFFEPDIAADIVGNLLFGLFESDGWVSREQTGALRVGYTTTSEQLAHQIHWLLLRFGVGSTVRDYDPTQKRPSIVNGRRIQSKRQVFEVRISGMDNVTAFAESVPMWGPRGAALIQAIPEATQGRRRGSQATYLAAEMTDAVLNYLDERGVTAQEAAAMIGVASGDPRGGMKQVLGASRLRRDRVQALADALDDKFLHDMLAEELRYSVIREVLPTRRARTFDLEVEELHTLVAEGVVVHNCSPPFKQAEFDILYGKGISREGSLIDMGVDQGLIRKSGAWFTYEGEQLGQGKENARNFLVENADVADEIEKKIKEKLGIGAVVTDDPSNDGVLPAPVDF

Procathepsin L = Procathepsin L (Homo sapiens, UniProt P07711); experiment: CTSL1 protease inhibition – biochemical, QFRET, 1536-well, counter-screen for M1/M17 aminopeptidase inhibitor project, dose response (AID 2214)
[8] = target: T4, Sentrin-specific protease 8 (Homo sapiens, UniProt Q96LD8); type: functional
T4 sequence (Q96LD8 whole entry): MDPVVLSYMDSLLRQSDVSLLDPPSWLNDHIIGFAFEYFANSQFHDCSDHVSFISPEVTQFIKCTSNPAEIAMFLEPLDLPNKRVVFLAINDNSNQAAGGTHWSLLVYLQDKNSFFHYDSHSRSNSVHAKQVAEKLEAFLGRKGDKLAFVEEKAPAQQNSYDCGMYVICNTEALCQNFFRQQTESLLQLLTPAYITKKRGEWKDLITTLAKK

[9] = target: T4, Sentrin-specific protease 8; type: functional; remark: listed apart in the source
[10] = target: T5, Replicative DNA helicase DnaB (Mycobacterium tuberculosis, UniProt P9WMR3); experiment: DnaB intein splicing inhibitors, dose response, biochemical, cell-free fluorescence (AID 449749); type: functional
T5 sequence (P9WMR3 whole entry): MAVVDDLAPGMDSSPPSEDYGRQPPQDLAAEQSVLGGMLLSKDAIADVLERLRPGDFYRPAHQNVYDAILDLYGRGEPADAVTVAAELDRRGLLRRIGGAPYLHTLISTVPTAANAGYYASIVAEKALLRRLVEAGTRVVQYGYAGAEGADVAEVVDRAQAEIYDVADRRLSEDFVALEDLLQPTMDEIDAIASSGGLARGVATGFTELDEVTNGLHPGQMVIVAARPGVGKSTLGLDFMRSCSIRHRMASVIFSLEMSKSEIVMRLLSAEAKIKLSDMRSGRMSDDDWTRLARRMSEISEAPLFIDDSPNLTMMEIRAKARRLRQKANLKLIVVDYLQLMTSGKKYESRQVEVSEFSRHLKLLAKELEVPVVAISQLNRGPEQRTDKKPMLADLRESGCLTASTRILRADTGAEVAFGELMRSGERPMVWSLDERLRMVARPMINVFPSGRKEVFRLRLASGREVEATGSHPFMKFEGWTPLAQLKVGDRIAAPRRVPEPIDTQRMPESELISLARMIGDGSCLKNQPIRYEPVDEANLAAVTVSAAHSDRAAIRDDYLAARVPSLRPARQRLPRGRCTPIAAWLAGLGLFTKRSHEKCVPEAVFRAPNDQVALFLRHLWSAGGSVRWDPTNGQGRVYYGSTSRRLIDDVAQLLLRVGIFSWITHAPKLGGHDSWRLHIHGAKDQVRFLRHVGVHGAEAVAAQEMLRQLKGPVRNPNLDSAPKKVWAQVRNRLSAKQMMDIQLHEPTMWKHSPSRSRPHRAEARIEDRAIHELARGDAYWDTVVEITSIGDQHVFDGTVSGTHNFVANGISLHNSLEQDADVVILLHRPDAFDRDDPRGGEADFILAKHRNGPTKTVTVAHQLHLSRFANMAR

Aspartyl aminopeptidase = target: T6, Aspartyl aminopeptidase (Plasmodium falciparum 3D7, UniProt Q8I2J3); experiment: Counterscreen for inhibitors of M1 and M17 aminopeptidases: QFRET-based biochemical high throughput dose response assay for inhibitors of the Plasmodium falciparum M18 Aspartyl Aminopeptidase (PFM18AAP). [Related PubChem assays: 1619 (Screening assay (M17LAP inhibitors).), 1445 (Screening assay (M1AAP inhibitors).)]
T6 sequence (Q8I2J3 whole entry): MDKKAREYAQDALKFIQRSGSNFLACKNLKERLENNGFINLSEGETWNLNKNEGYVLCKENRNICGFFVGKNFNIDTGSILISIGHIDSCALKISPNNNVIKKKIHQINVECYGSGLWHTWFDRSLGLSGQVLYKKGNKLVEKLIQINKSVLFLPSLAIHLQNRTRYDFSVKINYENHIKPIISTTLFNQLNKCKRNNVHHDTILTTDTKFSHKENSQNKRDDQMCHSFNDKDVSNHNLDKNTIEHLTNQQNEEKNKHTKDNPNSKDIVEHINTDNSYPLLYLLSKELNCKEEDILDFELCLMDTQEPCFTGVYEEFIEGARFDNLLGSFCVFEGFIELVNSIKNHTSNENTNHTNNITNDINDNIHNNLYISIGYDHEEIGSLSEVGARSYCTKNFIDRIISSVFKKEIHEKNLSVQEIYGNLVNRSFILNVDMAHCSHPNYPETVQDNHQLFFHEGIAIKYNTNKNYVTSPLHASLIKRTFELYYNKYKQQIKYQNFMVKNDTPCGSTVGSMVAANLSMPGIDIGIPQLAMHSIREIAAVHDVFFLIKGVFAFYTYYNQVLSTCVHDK

Leucine aminopeptidase = target: T7, Leucine aminopeptidase (Plasmodium falciparum 3D7, UniProt Q8IL11); experiment: P. falciparum M17LAP inhibitors, primary screen, biochemical, fluorogenic H-Leu-NHMec substrate, 1536-well (AID 1619); type: functional
T7 sequence (Q8IL11 whole entry): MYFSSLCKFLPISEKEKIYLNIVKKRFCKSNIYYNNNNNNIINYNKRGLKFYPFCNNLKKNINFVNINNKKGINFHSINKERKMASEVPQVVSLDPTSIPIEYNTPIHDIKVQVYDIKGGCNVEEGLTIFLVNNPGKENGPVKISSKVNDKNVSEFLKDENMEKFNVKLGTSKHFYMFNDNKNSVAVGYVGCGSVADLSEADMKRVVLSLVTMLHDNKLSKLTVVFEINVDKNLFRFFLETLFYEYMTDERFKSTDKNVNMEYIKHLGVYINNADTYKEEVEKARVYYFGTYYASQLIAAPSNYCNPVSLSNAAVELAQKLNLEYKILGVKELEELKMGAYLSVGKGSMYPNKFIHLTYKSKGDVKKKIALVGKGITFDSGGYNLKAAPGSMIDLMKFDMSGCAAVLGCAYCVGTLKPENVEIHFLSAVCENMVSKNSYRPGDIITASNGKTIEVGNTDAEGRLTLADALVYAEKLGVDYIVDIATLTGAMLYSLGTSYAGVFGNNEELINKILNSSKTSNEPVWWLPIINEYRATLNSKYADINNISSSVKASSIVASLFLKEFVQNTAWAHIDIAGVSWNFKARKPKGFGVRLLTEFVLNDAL

[11] = target: DNA dC->dU-editing enzyme APOBEC-3G (Homo sapiens, UniProt Q9HC16); experiment: Dose Response confirmation of small molecule APOBEC3G DNA Deaminase Inhibitors via a fluorescence-based single-stranded DNA deaminase assay. [Related pubchem assays (depositor defined):AID493012, AID493028]; type: functional
[12] = target: DNA dC->dU-editing enzyme APOBEC-3A (Homo sapiens, UniProt P31941); experiment: A3A deaminase inhibition for selectivity – biochemical, dose response (AID 504722); type: functional
DNA dC->dU-editing enzyme APOBEC-3A, sequence (P31941 whole entry): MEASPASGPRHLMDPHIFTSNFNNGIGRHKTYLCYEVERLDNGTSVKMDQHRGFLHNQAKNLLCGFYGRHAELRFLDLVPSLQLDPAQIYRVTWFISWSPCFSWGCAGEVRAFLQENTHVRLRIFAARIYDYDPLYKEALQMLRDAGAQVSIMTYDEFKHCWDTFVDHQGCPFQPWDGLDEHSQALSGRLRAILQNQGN

## Cc1cc(NC(=O)CCc2ccc(C)o2)no1
[1]
  IC50: > 100 µM (inactive)
[2]
  IC50: > 100 µM (inactive)
[3]
  IC50: > 100 µM (not active)
Protein skinhead-1
  IC50: > 100 µM (inactive)
[4]
  IC50: > 100 µM (not active)

## CCOC(=O)C1=C(C)N=C(SCC(=O)O)NC1c1ccccc1 (stereo unspecified)
[5]
  EC50: > 79.4 µM (not active)
[6]
  EC50: > 79.4 µM (not active)
[7]
  EC50: > 79.4 µM (not active)

## O=C(Nc1cnc2ccccc2c1)c1ccco1
Estrogen receptor
  IC50: > 50 µM (not active)

## O=c1cc(-c2ccc(Cl)cc2)[nH][nH]1
Protein RecA
  EC50: 0.527 µM (active)
Procathepsin L
  IC50: > 59.6 µM (not active)
[8]
  IC50: 57 µM (active)
[9]
  IC50: 67.7 µM (inactive)
[10]
  AC50: 2.33 µM (active)
Aspartyl aminopeptidase
  IC50: > 73.5 µM (not active)
Leucine aminopeptidase
  IC50: < 1 µM (active)

## COc1ccc(-c2cc(C(F)(F)F)n3ncc(C(=O)NCc4ccco4)c3n2)cc1
Estrogen receptor
  IC50: > 50 µM (not active)

## O=C(O)[C@H](O)c1ccccc1
[1]
  IC50: > 100 µM (inactive)
[2]
  IC50: > 100 µM (inactive)
[3]
  IC50: > 100 µM (not active)
[4]
  IC50: > 100 µM (not active)

## Sc1nc2cc(Cl)ccc2[nH]1
[5]
  EC50: > 79.4 µM (not active)
[6]
  EC50: > 79.4 µM (not active)
[11]
  IC50: 5.27 µM (active)
[12]
  IC50: > 100 µM (inactive)
[7]
  EC50: > 79.4 µM (not active)
